Data taken from ChEMBL document CHEMBL1201862, “PubChem BioAssay data set” (2004).
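Exposure lasted 48 hours, with cells grown in 96-well plates and compounds tested at five concentrations. Abbreviation: GI50, concentration required for 50% inhibition of growth.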 The source made the active and inactive calls. Cut-off read from the data, not from the text of the source: active = GI50 up to about 1.1 µM and inactive = higher.

How the values were obtained:
Assay in all cases: NCI anticancer screen, dose series, 48 h
HCT-116 = test system: HCT-116
OVCAR-8 = test system: OVCAR-8
SNB-19 = test system: SNB-19
SK-MEL-5 = test system: SK-MEL-5
NCI-H23 = test system: NCI-H23
HT-29 = test system: HT-29
MOLT-4 = test system: MOLT-4
KM12 = test system: KM12
ACHN = test system: ACHN
HCC 2998 = test system: HCC 2998
M14 = test system: M14
RPMI-8226 = test system: RPMI-8226
SF-295 = test system: SF-295
NCI-H522 = test system: NCI-H522
EKVX = test system: EKVX
UACC-257 = test system: UACC-257
SR = test system: SR
SW-620 = test system: SW-620
HOP-92 = test system: HOP-92
HL-60 = test system: HL-60

| SMILES | GI50 (HCT-116) | GI50 (OVCAR-8) | GI50 (SNB-19) | GI50 (SK-MEL-5) | GI50 (NCI-H23) | GI50 (HT-29) | GI50 (MOLT-4) | GI50 (KM12) | GI50 (ACHN) | GI50 (HCC 2998) | GI50 (M14) | GI50 (RPMI-8226) | GI50 (SF-295) | GI50 (NCI-H522) | GI50 (EKVX) | GI50 (UACC-257) | GI50 (SR) | GI50 (SW-620) | GI50 (HOP-92) | GI50 (HL-60) |
| --- | --- | --- | --- | --- | --- | --- | --- | --- | --- | --- | --- | --- | --- | --- | --- | --- | --- | --- | --- | --- |
| COC(=O)C(/C(=N/N)C(=O)Nc1cc(Cl)ccc1Cl)c1nc2ccc([N+](=O)[O-])cc2nc1O (stereo not given) | > 100 µM (inactive) | > 100 µM (inactive) | > 100 µM (inactive) | > 100 µM (inactive) | > 100 µM (inactive) | > 100 µM (inactive) | 17 µM (inactive) | > 100 µM (inactive) | 39.1 µM (inactive) | 74.6 µM (inactive) | 72.3 µM (inactive) | > 100 µM (inactive) | > 100 µM (inactive) | 21.3 µM (inactive) | 72.8 µM (inactive) | > 100 µM (inactive) | > 100 µM (inactive) | > 100 µM (inactive) | 30.7 µM (inactive) | > 100 µM (inactive) |
| Cc1ccc2c(C)c3ccc4ccccc4c3c[n+]2c1.[O-][Cl+3]([O-])([O-])[O-] | 27.5 µM (inactive) | 10 µM (inactive) | 6.46 µM (inactive) | 12 µM (inactive) | 14.6 µM (inactive) | 32.4 µM (inactive) | 3.99 µM (inactive) | 2.94 µM (inactive) | 58.7 µM (inactive) | 12.9 µM (inactive) | 17.9 µM (inactive) | 16.6 µM (inactive) | 23.1 µM (inactive) | 11.2 µM (inactive) | 13.7 µM (inactive) | 12.4 µM (inactive) | 12 µM (inactive) | 10.1 µM (inactive) | 17.9 µM (inactive) | 31.6 µM (inactive) |
| O=C1NC(N2CCCC(CO)C2)=N/C1=C\c1ccc(O)cc1 (stereo not given) | > 100 µM (inactive) | > 100 µM (inactive) | > 100 µM (inactive) | > 100 µM (inactive) | > 100 µM (inactive) | > 100 µM (inactive) | > 100 µM (inactive) | > 100 µM (inactive) | > 100 µM (inactive) | > 100 µM (inactive) | > 100 µM (inactive) | > 100 µM (inactive) | > 100 µM (inactive) | > 100 µM (inactive) | > 100 µM (inactive) | > 100 µM (inactive) | > 100 µM (inactive) | > 100 µM (inactive) | > 100 µM (inactive) | > 100 µM (inactive) |
| C[As](C)SCC(NC(=O)CCC(N)C(=O)O)C(=O)NCC(=O)O.c1ccncc1 (stereo not given) | 0.198 µM (active) | 0.231 µM (active) | 3.68 µM (inactive) | 0.0966 µM (active) | 0.284 µM (active) | 0.431 µM (active) | 3.51 µM (inactive) | 0.361 µM (active) | 0.117 µM (active) | 0.188 µM (active) | 0.22 µM (active) | 0.0421 µM (active) | 3.23 µM (inactive) | 0.0824 µM (active) | 0.182 µM (active) | 0.459 µM (active) | 0.02 µM (active) | 0.0855 µM (active) | 0.0843 µM (active) | 0.0578 µM (active) |
| COc1cccc(C2c3cc4c(cc3OC(NNS(=O)(=O)c3ccc(C)cc3)C2C)OCO4)c1OC (stereo not given) | 1.78 µM (inactive) | 27.4 µM (inactive) | 3.59 µM (inactive) | 2.83 µM (inactive) | 4.06 µM (inactive) | 3.18 µM (inactive) | 2.74 µM (inactive) | 3.3 µM (inactive) | 2.77 µM (inactive) | 5.36 µM (inactive) | 3.59 µM (inactive) | 2.28 µM (inactive) | 2.9 µM (inactive) | 1.88 µM (inactive) | 3.18 µM (inactive) | 2.7 µM (inactive) | 1.36 µM (inactive) | 3.08 µM (inactive) | 2.15 µM (inactive) | 1.42 µM (inactive) |
| CCN(CC)CCCNc1[nH]c2ccccc2c2nc3ccc(OC)cc3c1-2 | 0.618 µM (active) | 0.824 µM (active) | 1.59 µM (inactive) | 1.73 µM (inactive) | 1.57 µM (inactive) | 0.521 µM (active) | 0.279 µM (active) | 0.695 µM (active) | 4.27 µM (inactive) | 1.12 µM (inactive) | 1.71 µM (inactive) | 0.43 µM (active) | 1.17 µM (inactive) | 1.46 µM (inactive) | 1.71 µM (inactive) | 1.79 µM (inactive) | 0.274 µM (active) | 0.828 µM (active) | 2.13 µM (inactive) | 1.21 µM (inactive) |
